Test results as given in patent publication US20090297637A1.

Assays:
ERβ [1] = target: T1, ERβ (Homo sapiens, UniProt Q92731); conditions: in the presence of ERβ
Text: (§1) Plasmid Construction. […] ERβ mutants were created with QuikChange site-directed mutagenesis kits (Stratagene), by using oligonucleotides containing the mutation. The mutants were sequenced with Sequenase kits (Amersham Pharmacia) to verify the presence of the mutation.

ERβ [2] = target: T1, ERβ; experiment: Repression of TNF-α activation of TNF-RE tkLuc in U2OS cells; assay type: cell-based; set-up: expressed in transfected cells
TNF-RE tkLuc = experiment: Activation of TNF-RE tkLuc reporter (Example 2); assay type: cell-based, human; conditions: for effect on the repression induced by E2: TNF-RE tkLuc
Text: as §1

ERβ [3] = target: T1, ERβ; experiment: ERE-tk-Luc luciferase assay in U2OS osteosarcoma cells; assay type: cell-based; set-up: expressed in transfected cells; host or cells: U2OS (human osteosarcoma); conditions: co-administration with the extract
breast cancer [4] = conditions: among 5129 women in the treatment group, median follow-up 40 months; cited from earlier work
breast cancer [5] = conditions: cited from earlier work

T1 sequence (Q92731 whole entry): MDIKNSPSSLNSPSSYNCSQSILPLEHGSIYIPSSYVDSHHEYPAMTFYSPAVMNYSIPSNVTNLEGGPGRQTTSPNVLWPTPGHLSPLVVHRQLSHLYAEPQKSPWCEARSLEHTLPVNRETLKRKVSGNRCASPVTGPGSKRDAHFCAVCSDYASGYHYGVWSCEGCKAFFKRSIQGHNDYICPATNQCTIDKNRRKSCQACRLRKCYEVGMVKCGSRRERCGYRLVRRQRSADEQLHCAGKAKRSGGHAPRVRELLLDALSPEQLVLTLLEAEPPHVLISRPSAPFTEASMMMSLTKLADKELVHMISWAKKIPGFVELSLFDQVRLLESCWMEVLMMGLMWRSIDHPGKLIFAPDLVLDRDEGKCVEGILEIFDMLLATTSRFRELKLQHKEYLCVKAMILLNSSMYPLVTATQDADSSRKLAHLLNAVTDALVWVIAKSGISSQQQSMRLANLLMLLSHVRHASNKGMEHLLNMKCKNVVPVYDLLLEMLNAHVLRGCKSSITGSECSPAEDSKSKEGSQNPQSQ

Compound: C[C@]12CC[C@@H]3c4ccc(O)cc4CC[C@H]3[C@@H]1CC[C@@H]2O [Herb E2, estradiol]
- repression of TNF-α activation of TNF-RE tkLuc (ERβ [1]): 60-80%
- repression of TNF-α activation of TNF-RE (ERβ [2]): 100%

Compound: C[C@]12CC[C@@H]3c4ccc(O)cc4C[C@@H](CCCCCCCCC[S+]([O-])CCCC(F)(F)C(F)(F)F)[C@H]3[C@@H]1CC[C@@H]2O (some centres unmarked) [ICI 182780]
- activation of TNF-RE tkLuc by antiestrogens (TNF-RE tkLuc): 2 fold
- effect on the repression induced by E2 (TNF-RE tkLuc): abolished the repression induced by E2
- effect of anti-estrogen on extract-stimulated ERE-tk-Luc expression (ERβ [3]; FIG. 5): counteracted
- effect of anti-estrogen on extract-stimulated ERE-tk-Luc expression (ERβ [3]; FIG. 5, listed as ICI): attenuated

Compound: O=C(c1ccc(OCCN2CCCCC2)cc1)c1c(-c2ccc(O)cc2)sc2cc(O)ccc12 [raloxifene]
- activation of TNF-RE tkLuc by antiestrogens (TNF-RE tkLuc): 2 fold
- effect on the repression induced by E2 (TNF-RE tkLuc): abolished the repression induced by E2
- cases of breast cancer (breast cancer [4]): 13 cases
- effect of anti-estrogen on extract-stimulated ERE-tk-Luc expression (ERβ [3]; FIG. 5): counteracted
- effect of anti-estrogen on extract-stimulated ERE-tk-Luc expression (ERβ [3]; FIG. 5, listed as Raloxifene): attenuated

Compound: CC/C(=C(\c1ccccc1)c1ccc(OCCN(C)C)cc1)c1ccccc1 [tamoxifen]
- activation of TNF-RE tkLuc by antiestrogens (TNF-RE tkLuc): 2 fold
- effect on the repression induced by E2 (TNF-RE tkLuc): abolished the repression induced by E2
- reduction of the risk of primary invasive breast cancer (breast cancer [5]; BCPT, women at high risk for breast cancer): 49%
- reduction of the risk of recurrences (breast cancer [5]; five years of therapy, ER-positive breast cancer): 42%
- reduction of mortality from breast cancer (breast cancer [5]; five years of therapy): 22%

Compound: TNF-α
- activation of 3 copies of the TNF-RE (−125 to −82) upstream of the tk promoter (TNF-RE tkLuc; TNF-α as stimulus): 5-10 fold
